Measurements from patent US11827628B2, “Compositions and methods for inhibition of the JAK pathway” (Rigel Pharmaceuticals, Inc., priority 2005, dated 2023).
pIC50: −log10 of the molar value. Structures can show the parent of a compound that is named as a salt. Where two headings read alike, the source gives them in different places.

System: IL-4 stimulated expression of CD23 in human Ramos B cells (JAK-1 and JAK-3)
Assay: Assay for Ramos B-Cell Line Stimulated with IL-4 (CD23 upregulation, FACS)
Format: cell-based
Settings: read-out: IC50, Example 41
Description: One means of assaying for such inhibition is detection of the effect of the 2,4-substituted pyrimidinediamine compounds on the upregulation of downstream gene products. In the Ramos/IL4 assay, B-cells are stimulated with the cytokine Interleukin-4 (IL-4) leading to the activation of the JAK/Stat pathway through phosphorylation of the JAK family kinases, JAK1 and JAK3, which in turn phosphorylate and activate the transcription factor Stat-6. […] To study the effect of inhibitors (e.g., the 2,4-substituted pyrimindinediamine compounds described herein) on the JAK1 and JAK3 kinases, human Ramos B cells are stimulated with human IL-4. Twenty to 24 hours post stimulation, cells are stained for upregulation of CD23 and analyzed using flow cytometry (FACS). […] An exemplary assay of this type is described in greater detail in Example 41
B-cells stimulated with cytokine Interleukin-4 (IL-4) activate the JAK/Stat pathway through phosphorylation of the JAK family kinases, JAK-1 and JAK-3, which in turn phosphorylate and activate the transcription factor Stat-6. […] To study the effect of inhibitors on the JAK family kinases, human Ramos B cells are stimulated with human IL-4.
The Ramos B-cell line was acquired from ATCC (ATCC Catalog No. CRL-1596). The cells were cultured in RPMI 1640 (Cellgro, MediaTech, Inc., Herndon, VA, Cat No. 10-040-CM) with 10% fetal bovine serum (FBS), heat inactivated (JRH Biosciences, Inc, Lenexa, Kansas, Cat No. 12106-500M) according to ATCC propagation protocol. Cells were maintained at a density of 3.5×10^5. The day before the experiment, Ramos B-cells were diluted to 3.5×10^5 cells/mL to ensure that they were in a logarithmic growth phase.
Cells were spun down and suspended in RPMI with 5% serum. 5×10^4 cells were used per point in a 96-well tissue culture plate. Cells were pre-incubated with compound or DMSO (Sigma-Aldrich, St. Louis, MO, Cat No. D2650) vehicle control for 1 hour in a 37° C. incubator. Cells were then stimulated with IL-4 (Peprotech Inc., Rocky Hill, NJ, Cat No. 200-04) for a final concentration of 50 units/mL for 20-24 hours. Cells were then spun down and stained with anti-CD23-PE(BD Pharmingen, San Diego, CA, Cat No. 555711) and analyzed by FACS. Detection was performed using a BD LSR I System Flow Cytometer, purchased from Becton Dickinson Biosciences of San Jose, California The IC50 calculated based on the results of this assay are provided in TABLE XII.

[1] = Homo sapiens, Ramos, Ramos B cells stimulated with IL-4, CD23 expression by FACS
[2] = Ramos B-cell line stimulated with IL-4, CD23 expression by FACS
[3] = Ramos B cells stimulated with IL-4, CD23 expression by FACS

For `COC(=O)[C@@H]1C[C@H](Nc2nc(Nc3ccc(C)c(S(N)(=O)=O)c3)ncc2F)CN1C(=O)CC#N` [VII-2, N2-(3-Aminosulfonyl-4-methylphenyl)-N4-[(2S,4S)-1-(2-cyanoacetyl)-2-methoxycarbonylpyrrolidin-4-yl]-5-fluoro-2,4-pyrimidinediamine], the pIC50 [1] was 4.44.

`COC(=O)CN(c1ccc(OCc2cc(C)on2)cc1)c1nc(Nc2ccc(C)c(S(N)(=O)=O)c2)ncc1F` [Compound I-227, N2-(3-Aminosulfonyl-4-methylphenyl)-5-fluoro-N4-methoxycarbonylmethyl-N4-[4-(5-methylisoxazol-3-yl)methyleneoxyphenyl]-2,4-pyrimidinediamine] showed a pIC50 [2] of 5.83.

Molecule `CNS(=O)(=O)c1cc(Nc2ncc(F)c(Nc3ccc(C(=O)N4CCN(C(C)=O)CC4)cc3)n2)ccc1C` [IX-25, N4-[4-(1-Acetyl-4-piperizinyl)carbonylphenyl]-5-fluoro-N2-[3-(N-methylaminosulfony)-4-methylphenyl]-2,4-pyrimidinediamine] has a pIC50 [3] of 5.20.

`Cc1cc(COc2ccc(Nc3nc(Nc4ccc(C)c(S(=O)(=O)NC(=O)C(C)C)c4)ncc3F)cc2)no1` [Compound I-229, 5-Fluoro-N4-[4-(5-methylisoxazol-3-yl)methyleneoxyphenyl]-N2-(4-methyl-3-(2-methylpropionyl)aminosulfonylphenyl)-2,4-pyrimidinediamine] gave a pIC50 [2] of 5.43.

`NC(=O)COc1ccc(Nc2nc(Nc3ccc(S(N)(=O)=O)cc3)ncc2F)cc1` [Compound I-115, N4-(4-Aminocarbonylmethoxy)phenyl-N2-(4-aminosulfonyl)phenyl-5-fluoro-2,4-pyrimidinediamine] was tested, and the pIC50 [2] was 6.10.

`NS(=O)(=O)c1cccc(Nc2ncc(F)c(Nc3ccc(OCCN4CCOCC4)cc3)n2)c1` [Compound I-206] gave a pIC50 [2] of 6.14.

For `CS(=O)(=O)N1CCN(C(=O)c2ccc(Nc3nc(Nc4cccc(S(N)(=O)=O)c4)ncc3F)cc2)CC1` [IX-29, N2-(3-Aminosulfonylphenyl)-5-fluoro-N4-[4-(1-methanesulfonyl-4-piperizinyl)carbonylphenyl]-2,4-pyrimidinediamine], the pIC50 [3] was 5.46.

In the case of `CCC(=O)NS(=O)(=O)c1cc(Nc2ncc(F)c(Nc3ccc(OCC#N)cc3)n2)ccc1C` [Compound I-31, N4-(4-Cyanomethyleneoxy)phenyl-5-fluoro-N2-(4-methyl-3-propionylaminosulfonyl)phenyl-2,4-pyrimidinediamine sodium salt], the pIC50 (Ramos B-cell line stimulated with IL-4, CD23 expression by FACS, sodium salt) was 5.33.

For `CNS(=O)(=O)c1ccc(Nc2ncc(F)c(Nc3cccc(O)c3)n2)cc1OC` [Compound I-270], the pIC50 [2] was 6.11.

`CCOC(=O)CN(c1ccc(OC)c(Cl)c1)c1nc(Nc2ccc(C)c(S(N)(=O)=O)c2)ncc1C(=O)OCC` [VI-25, N2-(3-Aminosulfonyl-4-methylphenyl)-5-carboethoxy-N4-(N-carboethoxymethylene-N-3-chloro-4-methoxyphenyl)-2,4-pyrimidinediamine] was tested, and the pIC50 [3] was 5.00.

`COc1ccc(CN2C(=O)C(C)Sc3ccc(Nc4nc(Nc5ccc(C)c(S(N)(=O)=O)c5)ncc4F)cc32)cc1` (racemic) [Compound V-9, (R/S)-N2-(3-Aminosulphonyl-4-methylphenyl)-5-fluoro-N4-[2-methyl-3-oxo-4-(4-methoxybenzyl)-benzo[1,4]thiazin-6-yl]-2,4-pyrimidinediamine] showed a pIC50 [1] of 5.95.

`CN(C)c1ccc2cc(Nc3nc(Nc4cccc(S(N)(=O)=O)c4)ncc3F)ccc2n1` [VII-76, N2-(3-Aminosulfonylphenyl)-N4-(2-N,N′-dimethylamine-quinolin-6-yl)-5-fluoro-2,4-pyrimidinediamine] showed a pIC50 [3] of 6.17.

For `CCC(=O)NS(=O)(=O)c1cc(Nc2ncc(F)c(Nc3ccc(CCC#N)c(C)c3)n2)ccc1C` [VI-103, N4-[4(2-Cyanoethyl)-3-methylphenyl]-5-fluoro-N2-(4-methyl-3-propionylaminosulfonylphenyl)-2,4-pyrimidinediamine], the pIC50 [1] was 5.51.

`C#CCNS(=O)(=O)c1cccc(Nc2nc(Nc3cccc(S(N)(=O)=O)c3)ncc2F)c1` [VI-81, N2-(3-Aminosulfonylphenyl)-5-fluoro-N4-[3-(prop-2-ynylaminosulfonyl)phenyl]-2,4-pyrimidinediamine] was tested, and the pIC50 [1] was 5.50.
